What was measured:
[1] = molar heat capacity at constant pressure; settings: 101 kPa, Liquid
[2] = 101 kPa, Liquid; for mass density: Vibrating tube method; for speed of sound: Pulse-echo method
[3] = molar heat capacity at constant pressure; xn = mol fraction of the nth substance listed; settings: 101 kPa, Liquid, x2 = 0
[4] = xn = mol fraction of the nth substance listed; settings: 101 kPa, Liquid, x2 = 0; for mass density: Vibrating tube method; for speed of sound: Pulse-echo method

CCCCCCC [heptane]
Settings | mass density [kg/m3] | molar heat capacity at constant pressure [J/K/mol] | speed of sound [m/s]
[1], 293.15 K | – | 222.87 | –
[1], 294.15 K | – | 223.23 | –
[1], 295.15 K | – | 223.6 | –
[1], 296.15 K | – | 223.97 | –
[1], 297.15 K | – | 224.35 | –
[1], 298.15 K | – | 224.72 | –
[1], 299.15 K | – | 225.1 | –
[1], 300.15 K | – | 225.47 | –
[1], 301.15 K | – | 225.87 | –
[1], 302.15 K | – | 226.22 | –
[1], 303.15 K | – | 226.61 | –
[1], 304.15 K | – | 227 | –
[1], 305.15 K | – | 227.4 | –
[1], 306.15 K | – | 227.75 | –
[1], 307.15 K | – | 228.14 | –
[1], 308.15 K | – | 228.54 | –
[1], 309.15 K | – | 228.95 | –
[1], 310.15 K | – | 229.3 | –
[1], 311.15 K | – | 229.71 | –
[1], 312.15 K | – | 230.11 | –
[1], 313.15 K | – | 230.51 | –
[2], 292.7 K | 684.18 | – | –
[2], 292.84 K | – | – | 1153.7
[2], 297.98 K | 679.88 | – | –
[2], 298.84 K | – | – | 1127.7
[2], 302.94 K | 675.72 | – | –
[2], 303.8 K | – | – | 1106.4
[2], 308.06 K | 671.47 | – | –
[2], 308.78 K | – | – | 1085.1
[2], 314.1 K | 666.39 | – | –
[2], 314.87 K | – | – | 1059.1

CCCCCCC [heptane] + BrCCCCCBr
Settings | mass density [kg/m3] | molar heat capacity at constant pressure [J/K/mol] | speed of sound [m/s]
[3], 293.15 K | – | 222.87 | –
[3], 294.15 K | – | 223.23 | –
[3], 295.15 K | – | 223.6 | –
[3], 296.15 K | – | 223.97 | –
[3], 297.15 K | – | 224.35 | –
[3], 298.15 K | – | 224.72 | –
[3], 299.15 K | – | 225.1 | –
[3], 300.15 K | – | 225.47 | –
[3], 301.15 K | – | 225.87 | –
[3], 302.15 K | – | 226.22 | –
[3], 303.15 K | – | 226.61 | –
[3], 304.15 K | – | 227 | –
[3], 305.15 K | – | 227.4 | –
[3], 306.15 K | – | 227.75 | –
[3], 307.15 K | – | 228.14 | –
[3], 308.15 K | – | 228.54 | –
[3], 309.15 K | – | 228.95 | –
[3], 310.15 K | – | 229.3 | –
[3], 311.15 K | – | 229.71 | –
[3], 312.15 K | – | 230.11 | –
[3], 313.15 K | – | 230.51 | –
[4], 292.7 K | 684.18 | – | –
[4], 292.84 K | – | – | 1153.7
[4], 297.98 K | 679.88 | – | –
[4], 298.84 K | – | – | 1127.7
[4], 302.94 K | 675.72 | – | –
[4], 303.8 K | – | – | 1106.4
[4], 308.06 K | 671.47 | – | –
[4], 308.78 K | – | – | 1085.1
[4], 314.1 K | 666.39 | – | –
[4], 314.87 K | – | – | 1059.1

BrCCCCCBr [1,5-dibromopentane]
Settings | mass density [kg/m3] | molar heat capacity at constant pressure [J/K/mol] | speed of sound [m/s]
[1], 293.15 K | – | 219.76 | –
[1], 294.15 K | – | 219.98 | –
[1], 295.15 K | – | 220.19 | –
[1], 296.15 K | – | 220.41 | –
[1], 297.15 K | – | 220.66 | –
[1], 298.15 K | – | 220.84 | –
[1], 299.15 K | – | 221.1 | –
[1], 300.15 K | – | 221.28 | –
[1], 301.15 K | – | 221.49 | –
[1], 302.15 K | – | 221.73 | –
[1], 303.15 K | – | 221.95 | –
[1], 304.15 K | – | 222.17 | –
[1], 305.15 K | – | 222.41 | –
[1], 306.15 K | – | 222.63 | –
[1], 307.15 K | – | 222.85 | –
[1], 308.15 K | – | 223.09 | –
[1], 309.15 K | – | 223.31 | –
[1], 310.15 K | – | 223.56 | –
[1], 311.15 K | – | 223.78 | –
[1], 312.15 K | – | 224.03 | –
[1], 313.15 K | – | 224.26 | –
[2], 292.38 K | – | – | 1149.5
[2], 292.52 K | 1699.54 | – | –
[2], 298.05 K | 1691.87 | – | –
[2], 298.37 K | – | – | 1133
[2], 303.06 K | 1684.89 | – | –
[2], 303.39 K | – | – | 1119.3
[2], 308.08 K | 1678.03 | – | –
[2], 308.38 K | – | – | 1105.8
[2], 314.36 K | – | – | 1089.7
[2], 314.66 K | 1668.75 | – | –

From the NIST ThermoML archive (doi:10.1021/je060200b)
